Test results from patent US12492173B2, “Herbicidal substituted N-tetrazolyl aryl carboxamides” (Bayer Aktiengesellschaft, priority 2019, dated 2025).

Assays:
Assay type in all cases: in vivo
[1] = tested on: Amaranthus retroflexus; assay: Pre-emergence herbicidal action, AMARE; details: dosage 320 g/ha; for herbicidal activity AMARE: scored visually after 3 weeks vs untreated controls (100% = plants have died)
Summary of the method: (§1)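 Application took place on the soil surface immediately after sowing into sandy loam, using aqueous WP or EC preparations with 0.2% wetting agent. Visual percent scoring followed 3 weeks later, untreated pots serving as reference.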

[2] = tested on: Veronica persica; assay: Pre-emergence herbicidal action, VERPE; details: dosage 320 g/ha; for herbicidal activity VERPE: scored visually after 3 weeks vs untreated controls (100% = plants have died)
Summary of the method: as §1

[3] = tested on: Viola tricolor; assay: Pre-emergence herbicidal action, VIOTR; details: dosage 320 g/ha; for herbicidal activity VIOTR: scored visually after 3 weeks vs untreated controls (100% = plants have died)
Summary of the method: as §1

[4] = tested on: Alopecurus myosuroides; assay: Post-emergence herbicidal action, ALOMY; set-up: key: % herbicidal action vs untreated; 100 = plants died, 0 = like control
Summary of the method: (§2)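 Visual % damage versus untreated plants, scored about 3 weeks post-spray (100% = dead, 0% = like control). Greenhouse plants in sandy loam were treated at one-leaf stage with WP/EC formulations in water at 600 to 800 l/ha plus 0.2% wetting agent.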

[5] = tested on: Matricaria inodora; assay: Post-emergence herbicidal action, MATIN; set-up: key: % herbicidal action vs untreated; 100 = plants died, 0 = like control
Summary of the method: as §2

[6] = tested on: Veronica persica; assay: Post-emergence herbicidal action, VERPE; set-up: key: % herbicidal action vs untreated; 100 = plants died, 0 = like control
Summary of the method: as §2

Structure (SMILES)	herbicidal activity AMARE [1]	herbicidal activity VERPE [2]	herbicidal activity VIOTR [3]	herbicidal action ALOMY ([4]; post-emergence, dosage 80 g/ha)	herbicidal action MATIN ([5]; post-emergence, dosage 80 g/ha)	herbicidal action VERPE ([6]; post-emergence, dosage 80 g/ha)	herbicidal action ALOMY ([4]; Dosage 80 g/ha)	herbicidal action MATIN ([5]; Dosage 80 g/ha)	herbicidal action VERPE ([6]; Dosage 80 g/ha)	herbicidal action AMARE [1]	herbicidal action VERPE [2]	herbicidal action VIOTR [3]
CCn1nnnc1NC(=O)c1ccc(C(F)(F)F)c(CSC)c1Cl [Example 2-296]	100%	100%	100%	100%	90%	100%						
CCn1nnnc1NC(=O)c1ccc(C(F)(F)F)c(C[S+](C)[O-])c1Cl (stereo not drawn) [Example 2-297]	100%	100%	100%	100%	100%	100%						
CCn1nnnc1NC(=O)c1ccc(C(F)(F)F)c(CS(C)(=O)=O)c1Cl [Example 2-298]	100%	100%	100%				80	100	100			
CCSCc1c(C(F)(F)F)ccc(C(=O)Nc2nnnn2CC)c1Cl [Example 2-299]	100%	100%	100%	90%	100%	100%						
CCn1nnnc1NC(=O)c1ccc(C(F)(F)F)c(C[S+]([O-])CC)c1Cl (stereo not drawn) [Example 2-300]	100%	100%	100%	90%	90%	100%						
CCn1nnnc1NC(=O)c1ccc(C(F)(F)F)c(CS(=O)(=O)CC)c1Cl [Example 2-301]							80	90	100	100%	100%	100%
CCn1nnnc1NC(=O)c1ccc(C(F)(F)F)c(CSCCOC)c1Cl [Example 2-305]	100%	100%	100%	100%	100%	100%						
CCn1nnnc1NC(=O)c1ccc(C(F)(F)F)c(CSCC(F)(F)F)c1Cl [Example 2-311]	100%	90%	100%				90	100	100			
CCn1nnnc1NC(=O)c1ccc(C(F)F)c(CS(C)(=O)=O)c1Cl [Example 2-322]	100%	100%	100%	80%	90%	90%						
CCSCc1c(C(F)F)ccc(C(=O)Nc2nnnn2CC)c1Cl [Example 2-323]	100%	100%	100%	80%	90%	100%						
CCn1nnnc1NC(=O)c1ccc(C(F)F)c(C[S+]([O-])CC)c1Cl (stereo not drawn) [Example 2-324]	100%	100%	100%	90%	100%	100%						
CCn1nnnc1NC(=O)c1ccc(C(F)F)c(CS(=O)(=O)CC)c1Cl [Example 2-325]	100%	100%	100%				80	80	90			
CCn1nnnc1NC(=O)c1ccc(I)c(C[S+](C)[O-])c1Cl (stereo not drawn) [Example 2-363]	100%	100%	100%				90	100	100			
CCn1nnnc1NC(=O)c1ccc(C(F)(F)F)c(C[S+]([O-])CC)c1Br (stereo not drawn) [Example 2-384]	100%	100%	100%	90%	100%	100%						
CCn1nnnc1NC(=O)c1ccc(C(F)(F)F)c(CS(=O)(=O)CC)c1Br [Example 2-385]	100%	100%	100%	80%	100%	100%						
CCn1nnnc1NC(=O)c1ccc(Cl)c(CSC)c1Cl [Example 2-559]							90	100	100	100%	100%	100%
CCCn1nnnc1NC(=O)c1ccc(C(F)(F)F)c(C[S+](C)[O-])c1SC (stereo not drawn) [Example 3-162]	100%	100%	100%	90%	100%	100%						
CCCn1nnnc1NC(=O)c1ccc(C(F)(F)F)c(CS(C)(=O)=O)c1SC [Example 3-163]	100%	100%	100%				90	90	100			
C=CCSCc1c(C(F)(F)F)ccc(C(=O)Nc2nnnn2CCC)c1Cl [Example 3-308]	100%	100%	100%				100	100	80			
CCCn1nnnc1NC(=O)c1ccc(C(F)(F)F)c(CSCC(F)(F)F)c1Cl [Example 3-311]							100	100	80	100%	100%	100%
CCCn1nnnc1NC(=O)c1ccc(C(F)(F)F)c(CSCC2CC2)c1Cl [Example 3-314]	100%	100%	100%	100%	100%	100%						
CCCn1nnnc1NC(=O)c1ccc(C(F)F)c(CSCC)c1Cl [Example 3-323]	100%	100%	100%				80	90	90			
CCCn1nnnc1NC(=O)c1ccc(I)c(C[S+](C)[O-])c1Cl (stereo not drawn) [Example 3-363]							80	100	100	100%	90%	100%
CCCn1nnnc1NC(=O)c1ccc(C(F)(F)F)c(C[S+]([O-])CC)c1Br (stereo not drawn) [Example 3-384]	100%	100%	100%				80	100	100			
